Results as given in patent US10959968B2, “Methods for treating c-Met-dependent cancers” (Board of Supervisors of Louisiana State University and …, priority 2016, dated 2021).

How the values were obtained:
[1] = system: DU145 human prostate cancer cells (pMet, pAkt, pErk); experiment: Western blot of HGF-induced signaling in prostate cancer cells; type: cell-based; conditions: 30 min pretreatment, 30 min HGF
Method: FIG. 4. A) Effect of HVS treatment on HGF-induced c-Met activation in human breast cancer cells using Western Blot analysis. Treatment with HVS caused a significant, dose-responsive inhibition of HGF-induced c-Met phosphorylation in MDA-MB-231, MCF-7, and BT-474 mammary tumor cells with no effect on total c-Met levels after treatment for 72 h, as compared to their respective vehicle-treated control groups. The visualization of β-tubulin was used as a loading control. (B) Effect of HVS on HGF-induced c-Met activation and its downstream mitogenic signaling in DU145 human prostate cancer cells, as compared to vehicle-treated control group, using Western Blot analysis. Cells were pre-treated for 30 minutes with either HVS at 0.1, 0.3, 1, and 5 μM or (−)-oleocanthal at 5, 10, and 20 μM doses in serum-free 0.4-media. 33 ng/mL HGF was then added for 30 minutes. Whole cell lysates were collected and assayed by Western Blot. The visualization of α-tubulin was used as a loading control. Representative Western Blots from each experiment are shown, N=3.
DU145 prostate tumor cells were pretreated for 30 minutes with the indicated compounds. Following pretreatment, cells were pulsed for thirty minutes with HGF, cell lysates were prepared and western blot analysis was performed to identify pMet, pAkt, pErk and tubulin.

MDA-MB231 spheroids = experiment: 3D spheroid growth, IncuCyte; type: cell-based, human; conditions: 10 micromolar, results not shown
Method: FIG. 9. (A). MDA-MB231 cells were grown in 10% FBS DMEM. Cells were collected after trypsinization and resuspended in phenol-red free DMEM with 10% FBS. Cells were labeled with CellTracker Red (Life Technologies) for 5 minutes. After labeling cells were washed with PBS and transfer into 96-well Corning 7007 ULA round bottom plates at 1,000 cells/well in 100 μl phenol-red free media with 10% FBS and 5% Matrigel. […] Spheroids were grown at 37° C. and 5% CO2 in IncuCyte ZOOM (Essen Bioscience). Images were acquired every 4 h for a period of 72 h post-treatment. The data were expressed as fold increase in spheroids size at the end of the treatment using the “average red object area in the well” as determined by the IncuCyte software analysis.
MDA-MB231 spheroids were all allowed to form and treated with compounds for up to 72 hours. Images were captured using the Incucyte platform.

DU145 spheroids = experiment: 3D spheroid growth, IncuCyte; type: cell-based, human; conditions: 10 micromolar, 72 hours
Method: FIG. 9B: DU145 cells were grown in 10% FBS DMEM. Cells were collected after trypsinization and resuspended in phenol-red free DMEM with 10% FBS. Cells were labeled with Cell-Tracker Red (Life Technologies) for 5 minutes. After labeling cells were washed with PBS and transfer into 96-well Corning 7007 ULA round bottom plates at 1,000 cells/well in 100 μl phenol-red free media with 10% FBS and 5% Matrigel. […] Spheroids were grown at 37° C. and 5% CO2 in IncuCyte ZOOM (Essen Bioscience). Images were acquired every 4 h for a period of 72 h post-treatment and software analysis was design to identify the red object in the well. The data were expressed as fold increase in spheroids size at the end of the treatment using the “average red object area in the well” as determined by the IncuCyte software analysis. FIG. 9C: Visually representative spheroids that are quantitated in FIG. 9B.
To determine the effectiveness of these compounds under 3D growth conditions which more accurately predict effectiveness of new drugs in humans, DU145 spheroids were formed and allowed to grow for 72 hours. Images were recorded every 4 hours using the Incucyte platform. […] Compounds 9 and 10, at 10 micromolar reduced spheroid growth by about 50 percent (not shown).

## COc1cc(CCOC(=O)/C=C/c2cc(OC)c(O)c(OC)c2)ccc1N [Compound 9, (E)-4-amino-3-methoxyphenethyl 3-(4-hydroxy-3,5-dimethoxyphenyl)-acrylate]
[1]
  pAkt signaling: did attenuate
  pMet induction: did not lower
MDA-MB231 spheroids
  effect on spheroid growth: effective
DU145 spheroids
  reduction of spheroid growth: about 50%

## COc1cc(/C=C/C(=O)OCCc2ccc(N)nc2)cc(OC)c1O [Compound 10, (E)-2-(6-aminopyridin-3-yl)ethyl 3-(4-hydroxy-3,5-dimethoxyphenyl)acrylate]
[1]
  HGF-induced (Met dependent) signaling: appeared to increase
MDA-MB231 spheroids
  effect on spheroid growth: effective
DU145 spheroids
  reduction of spheroid growth: about 50%
